# In PMC8341910, “Structural and biophysical insights into the mode of covalent binding of rationally designed potent BMX inhibitors” (RSC Chemical Biology, 2020):
# Assays:
# hBMX = target: T1, hBMX (Homo sapiens, UniProt P51813); assay: Mass spectrometry of drug-conjugated hBMX; conditions: 2.5 mM compound, room temperature, 30 min, PBS pH 7.4; MS/MS after digestion
# T1 construct: Crystallization, data collection, and structure determination of BMX catalytic domain in; made in house; host or cells: Sf-9 insect cells
# Procedure: Mass spectrometry (MS) studies confirmed the covalent binding of JS24 at cysteine 496 of BMX. The truncated hBMX was analyzed by native MS and the protein mass found was 30899 Da (Fig. 2a). The protein was then treated with 2.5 mM of JS24 at room temperature for 30 min in PBS pH 7.4 and directly analyzed by denaturing MS. The protein was fully denatured and cleaned on a reverse phase column, discarding any non-specific binding, to retain only any covalently linked compound. The mass found upon incubation with JS24 is 31 424 Da, which is 525 Da larger than the apo-form of hBMX (Fig. 2b).
# Fig. 2 Mass spectrometric analysis of BMX and JS24 conjugated to BMX. (a) Native MS analysis of hBMX. The measured molecular weight is indicated. […] The measured molecular weight is indicated. […]
# The BMX enzyme system (Catalog. V4512) and the ADP-GloTM kinase assay were purchased from Promega Corporation (USA). […] Then, 10 µL of kinase detection reagent was added into the wells and incubated for 30 min to produce a luminescence signal. The signal was measured using an Infinite M200 Microplate Reader (Tecan Group Ltd, Switzerland), with an integration time of 0.250s. The observed rate constants for inhibition (kobs), at different inhibitor concentrations, were determined from the slope of a semi-logarithmic plot of inhibition versus time, and re-plotted against inhibitor concentration (nM). […]
# FYN = FYN (Homo sapiens, UniProt P06241); assay: KINOMEscan binding; conditions: read-out: % Ctrl FYN
# Chain of FYN (P06241 whole entry): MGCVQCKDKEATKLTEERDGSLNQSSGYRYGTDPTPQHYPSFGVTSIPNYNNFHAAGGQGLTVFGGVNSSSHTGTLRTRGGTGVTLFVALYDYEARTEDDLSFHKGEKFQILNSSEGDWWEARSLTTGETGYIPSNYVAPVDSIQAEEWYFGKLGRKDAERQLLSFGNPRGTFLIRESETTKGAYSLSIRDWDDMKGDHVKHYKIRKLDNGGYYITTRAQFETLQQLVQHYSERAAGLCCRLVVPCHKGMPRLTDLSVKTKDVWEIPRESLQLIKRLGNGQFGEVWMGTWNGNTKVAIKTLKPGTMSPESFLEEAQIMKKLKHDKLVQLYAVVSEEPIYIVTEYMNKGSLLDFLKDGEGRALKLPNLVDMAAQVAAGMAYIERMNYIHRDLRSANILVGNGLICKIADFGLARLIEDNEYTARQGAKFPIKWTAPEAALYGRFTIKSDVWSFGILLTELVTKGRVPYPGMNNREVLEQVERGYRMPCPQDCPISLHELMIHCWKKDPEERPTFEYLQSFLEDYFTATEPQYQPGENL
# Procedure: Therefore, we included the whole TEC, EGFR and JAK family in our screening, and the Src family and Lkb1, which also have a cysteine within the same sequence alignment. We also included kinases involved in upstream (Src, FAK, PI3K, mTOR, PDK1) and downstream (Akt, PAK1, TAM) regulation of BMX signaling pathway and non-receptor tyrosine protein kinase Abl.
# Kinome selectivity was performed with DiscoverX KINOMEscan™ technology.
# T1 sequence (P51813 417-675 limits assumed): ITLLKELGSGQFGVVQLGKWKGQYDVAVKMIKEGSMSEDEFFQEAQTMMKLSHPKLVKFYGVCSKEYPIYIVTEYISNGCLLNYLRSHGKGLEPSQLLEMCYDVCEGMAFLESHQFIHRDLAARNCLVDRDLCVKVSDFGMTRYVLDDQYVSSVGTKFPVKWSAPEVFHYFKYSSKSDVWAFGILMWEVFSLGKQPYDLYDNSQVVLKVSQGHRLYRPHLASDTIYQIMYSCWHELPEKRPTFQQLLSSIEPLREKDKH
Structure (SMILES),site of covalent modification of hBMX (hBMX),remaining binding at 1 µM (FYN) [%]
C=CC(=O)Nc1cc(-n2c(=O)ccc3cnc4cc(-c5ccc(NS(C)(=O)=O)cc5)ccc4c32)ccc1C [JS24],covalent modification at cysteine residue 496,–
C=CC(=O)Nc1cc(C)cc(-n2c(=O)ccc3cnc4cc(-c5ccc(NS(C)(=O)=O)cc5)ccc4c32)c1 [JS25],–,99
